pIC50: −log10 of the molar value. Where a name gives a salt, the structure may show the parent alone.
Each molecule was assayed against T1, full length SGK1 (Homo sapiens, UniProt O00141) (assay: SGK1 inhibition Assay A (Caliper LabChip electrophoretic separation of fluorescent peptide substrate and phosphorylated product)). Details: Assay A; 20 μM ATP, 40 min incubation; read-out: SGK1 IC50.
T1 construct: 125 μM full length SGK1 (Life Technologies Part #PR7358A); purchased Life Technologies PR7358A
T1 sequence (O00141 1-431): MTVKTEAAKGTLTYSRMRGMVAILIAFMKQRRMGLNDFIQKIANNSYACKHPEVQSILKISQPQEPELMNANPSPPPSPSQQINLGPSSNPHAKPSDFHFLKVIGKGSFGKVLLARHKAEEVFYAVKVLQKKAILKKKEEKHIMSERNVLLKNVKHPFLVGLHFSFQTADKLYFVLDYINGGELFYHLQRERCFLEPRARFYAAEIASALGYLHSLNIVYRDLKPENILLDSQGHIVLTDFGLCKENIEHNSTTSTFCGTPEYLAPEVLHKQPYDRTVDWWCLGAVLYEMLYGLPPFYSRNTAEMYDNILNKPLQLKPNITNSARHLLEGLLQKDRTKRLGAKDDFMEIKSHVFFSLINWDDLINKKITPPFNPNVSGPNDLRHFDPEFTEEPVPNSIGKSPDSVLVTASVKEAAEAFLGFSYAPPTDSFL
Type: biochemical

Question: How did the pIC50 turn out when `CCOc1ccsc1C(=O)N[C@@H]1CCCN(c2cc(-c3ccc(S(C)(=O)=O)cc3)n3ncnc(N)c23)C1` [Example 99, (R)-N-(1-(4-amino-7-(4-(methylsulfonyl)phenyl)pyrrolo[2,1-f][1,2,4]triazin-5-yl)piperidin-3-yl)-3-ethoxythiophene-2-carboxamide] was run?
Answer: The pIC50 was 8.15.

Question: `COc1cc(C)sc1C(=O)N[C@@H]1CCCN(c2cc(-c3ccc(S(C)(=O)=O)cc3)n3ncnc(N)c23)C1` [Example 100, (R)-N-(1-(4-amino-7-(4-(methylsulfonyl)phenyl)pyrrolo[2,1-f][1,2,4]triazin-5-yl)piperidin-3-yl)-3-methoxy-5-methylthiophene-2-carboxamide] was tested. Which pIC50 did it give?
Answer: The pIC50 was 8.10.

Question: `Cc1cnc(C(=O)N[C@@H]2CCCN(c3cc(-c4ccc(S(C)(=O)=O)cc4)n4ncnc(N)c34)C2)s1` [Example 101, (R)-N-(1-(4-amino-7-(4-(methylsulfonyl)phenyl)pyrrolo[2,1-f][1,2,4]triazin-5-yl)piperidin-3-yl)-5-methylthiazole-2-carboxamide] was tested. Which pIC50 did it give?
Answer: The pIC50 was 7.68.

Question: `COc1cncc(C(=O)N[C@@H]2CCCN(c3cc(-c4ccc(S(C)(=O)=O)cc4)n4ncnc(N)c34)C2)c1` [Example 102, (R)-N-(1-(4-amino-7-(4-(methylsulfonyl)phenyl)pyrrolo[2,1-f][1,2,4]triazin-5-yl)piperidin-3-yl)-5-methoxynicotinamide, TFA] was tested. Which pIC50 did it give?
Answer: Its pIC50 is 7.35.

Question: With `CS(=O)(=O)c1ccc(-c2cc(N3CCC[C@H](C(=O)Nc4nccs4)C3)c3c(N)ncnn23)cc1` [Example 103, (S)-1-(4-amino-7-(4-(methylsulfonyl)phenyl)pyrrolo[2,1-f][1,2,4]triazin-5-yl)-N-(thiazol-2-yl)piperidine-3-carboxamide] as the molecule, how does the pIC50 read?
Answer: The pIC50 was 6.14.

Question: `CS(=O)(=O)c1ccc(-c2cc(N3CCC[C@@H](C(=O)Nc4nccs4)C3)c3c(N)ncnn23)cc1` [Example 104, (R)-1-(4-amino-7-(4-(methylsulfonyl)phenyl)pyrrolo[2,1-f][1,2,4]triazin-5-yl)-N-(thiazol-2-yl)piperidine-3-carboxamide] was tested. Which pIC50 did it give?
Answer: Its pIC50 is 6.61.

Question: How did the pIC50 turn out when `CS(=O)(=O)c1ccc(-c2cc(N3CCC[C@@H](C(=O)Nc4ccccc4)C3)c3c(N)ncnn23)cc1` [Example 105, (R)-1-(4-amino-7-(4-(methylsulfonyl)phenyl)pyrrolo [2,1-f][1,2,4]triazin-5-yl)-N-phenylpiperidine-3-carboxamide] was run?
Answer: The pIC50 was 6.47.

Question: How did the pIC50 turn out when `CS(=O)(=O)c1ccc(-c2cc(N3CCC[C@@H](C(=O)NCc4ccccc4)C3)c3c(N)ncnn23)cc1` [Example 106, (R)-1-(4-amino-7-(4-(methylsulfonyl)phenyl)pyrrolo [2,1-f][1,2,4]triazin-5-yl)-N-benzylpiperidine-3-carboxamide] was run?
Answer: Its pIC50 is 6.08.

Question: With `CS(=O)(=O)N1CC=C(c2cc(N3CCC[C@@H](NC(=O)c4ccns4)C3)c3c(N)ncnn23)C1` [Example 112, (R)—N-(1-(4-amino-7-(1-(methylsulfonyl)-2,5-dihydro-1H-pyrrol-3-yl)pyrrolo[2,1-f][1,2,4]triazin-5-yl)piperidin-3-yl)isothiazole-5-carboxamide, TFA] as the molecule, how does the pIC50 read?
Answer: Its pIC50 is 8.40.

Question: `CS(=O)(=O)N1CC=C(c2cc(N3CCC[C@@H](NC(=O)c4ccccc4)C3)c3c(N)ncnn23)C1` [Example 113, (R)—N-(1-(4-amino-7-(1-(methylsulfonyl)-2,5-dihydro-1H-pyrrol-3-yl)pyrrolo[2,1-f][1,2,4]triazin-5-yl)piperidin-3-yl)benzamide, TFA] was tested. Which pIC50 did it give?
Answer: The pIC50 was 7.64.

Question: With `COc1cc(C(=O)N[C@@H]2CCCN(c3cc(C4=CCN(S(C)(=O)=O)C4)n4ncnc(N)c34)C2)ccn1` [Example 114, (R)—N-(1-(4-amino-7-(1-(methylsulfonyl)-2,5-dihydro-1H-pyrrol-3-yl)pyrrolo[2,1-f][1,2,4]triazin-5-yl)piperidin-3-yl)-2-methoxyisonicotinamide] as the molecule, how does the pIC50 read?
Answer: Its pIC50 is 7.80.

Question: With `COc1cc(C(=O)N[C@@H]2CCCN(c3cc(C4=CN(S(C)(=O)=O)CC4)n4ncnc(N)c34)C2)ccn1` [Example 115, (R)—N-(1-(4-amino-7-(1-(methylsulfonyl)-4,5-dihydro-1H-pyrrol-3-yl)pyrrolo[2,1-f][1,2,4]triazin-5-yl)piperidin-3-yl)-2-methoxyisonicotinamide] as the molecule, how does the pIC50 read?
Answer: Its pIC50 is 6.99.

Question: With `Cc1cc(C(=O)N[C@@H]2CCCN(c3cc(C4=CCN(S(C)(=O)=O)C4)n4ncnc(N)c34)C2)ccn1` [Example 116, (R)—N-(1-(4-amino-7-(1-(methylsulfonyl)-2,5-dihydro-1H-pyrrol-3-yl)pyrrolo[2,1-f][1,2,4]triazin-5-yl)piperidin-3-yl)-2-methylisonicotinamide] as the molecule, how does the pIC50 read?
Answer: The pIC50 was 7.92.

Question: How did the pIC50 turn out when `CS(=O)(=O)N1CC=C(c2cc(N3CCC[C@@H](NC(=O)c4ccnc(F)c4)C3)c3c(N)ncnn23)C1` [Example 117, (R)—N-(1-(4-amino-7-(1-(methylsulfonyl)-2,5-dihydro-1H-pyrrol-3-yl)pyrrolo[2,1-f][1,2,4]triazin-5-yl)piperidin-3-yl)-2-fluoroisonicotinamide, TFA] was run?
Answer: Its pIC50 is 8.22.

Question: With `CS(=O)(=O)N1C=C(c2cc(N3CCC[C@@H](NC(=O)c4ccnc(F)c4)C3)c3c(N)ncnn23)CC1` [Example 118, (R)—N-(1-(4-amino-7-(1-(methylsulfonyl)-4,5-dihydro-1H-pyrrol-3-yl)pyrrolo[2,1-f][1,2,4]triazin-5-yl)piperidin-3-yl)-2-fluoroisonicotinamide, TFA] as the molecule, how does the pIC50 read?
Answer: Its pIC50 is 6.89.

Question: `CC(C)c1cc(C(=O)N[C@@H]2CCCN(c3cc(C4=CCN(S(C)(=O)=O)C4)n4ncnc(N)c34)C2)on1` [Example 119, (R)—N-(1-(4-amino-7-(1-(methylsulfonyl)-2,5-dihydro-1H-pyrrol-3-yl)pyrrolo[2,1-f][1,2,4]triazin-5-yl)piperidin-3-yl)-3-isopropylisoxazole-5-carboxamide, TFA] was tested. Which pIC50 did it give?
Answer: The pIC50 was 7.74.

Question: `CC(C)(C)OC(=O)N[C@@H]1CCCCN(c2cc(-c3ccc(S(C)(=O)=O)cc3)n3ncnc(N)c23)C1` [Example 120, tert-butyl (R)-(1-(4-amino-7-(4-(methylsulfonyl)phenyl)pyrrolo[2,1-f][1,2,4]triazin-5-yl)azepan-3-yl)carbamate] was tested. Which pIC50 did it give?
Answer: Its pIC50 is 5.47.

Question: `COc1cc(C(=O)N(C)[C@@H]2CCCN(c3cc(-c4ccc(S(C)(=O)=O)cc4)n4ncnc(N)c34)C2)ccn1` [Example 121, (R)—N-(1-(4-amino-7-(4-(methylsulfonyl)phenyl)pyrrolo[2,1-f][1,2,4]triazin-5-yl)piperidin-3-yl)-2-methoxy-N-methylisonicotinamide] was tested. Which pIC50 did it give?
Answer: The pIC50 was 6.42.

Question: How did the pIC50 turn out when `Cc1ccc(C(=O)N(C)[C@@H]2CCCN(c3cc(-c4ccc(S(C)(=O)=O)cc4)n4ncnc(N)c34)C2)s1` [Example 122, (R)—N-(1-(4-amino-7-(4-(methylsulfonyl)phenyl)pyrrolo[2,1-f][1,2,4]triazin-5-yl)piperidin-3-yl)-N,5-dimethylthiophene-2-carboxamide] was run?
Answer: The pIC50 was 7.54.

Question: `CN(C(=O)c1ccccc1)[C@@H]1CCCN(c2cc(-c3ccc(S(C)(=O)=O)cc3)n3ncnc(N)c23)C1` [Example 123, (R)—N-(1-(4-amino-7-(4-(methylsulfonyl)phenyl)pyrrolo[2,1-f][1,2,4]triazin-5-yl)piperidin-3-yl)-N-methylbenzamide] was tested. Which pIC50 did it give?
Answer: The pIC50 was 6.22.

Question: How did the pIC50 turn out when `Cc1ccc(C(=O)N[C@@H]2CCCN(c3cc(C4=CCN(S(C)(=O)=O)C4)n4ncnc(N)c34)C2)s1` [Example 124, (R)—N-(1-(4-amino-7-(1-(methylsulfonyl)-2,5-dihydro-1H-pyrrol-3-yl)pyrrolo[2,1-f][1,2,4]triazin-5-yl)piperidin-3-yl)-5-methylthiophene-2-carboxamide] was run?
Answer: The pIC50 was 8.70.

Question: How did the pIC50 turn out when `Cc1ccc(C(=O)N[C@@H]2CCCN(c3cc(C4=CN(S(C)(=O)=O)CC4)n4ncnc(N)c34)C2)s1` [Example 125] was run?
Answer: The pIC50 was 7.57.

Question: With `Nc1ncnn2c(-c3ccncc3)cc(N3CCC[C@@H](NC(=O)c4ccccc4)C3)c12` [Example 126, N-[(3R)-1-[4-amino-7-(pyridin-4-yl)pyrrolo[2,1-f][1,2,4]triazin-5-yl]piperidin-3-yl]benzamide] as the molecule, how does the pIC50 read?
Answer: The pIC50 was 8.30.

Question: With `COc1cc(C(=O)N[C@@H]2CCCN(c3cc(-c4ccncc4)n4ncnc(N)c34)C2)ccn1` [Example 127, N-[(3R)-1-[4-amino-7-(pyridin-4-yl)pyrrolo[2,1-f][1,2,4]triazin-5-yl]piperidin-3-yl]-2-methoxypyridine-4-carboxamide] as the molecule, how does the pIC50 read?
Answer: Its pIC50 is 8.30.

Question: `Cc1ccc(C(=O)N[C@@H]2CCCN(c3cc(-c4ccncc4)n4ncnc(N)c34)C2)s1` [Example 128, N-[(3R)-1-[4-amino-7-(pyridin-4-yl)pyrrolo[2,1-f][1,2,4]triazin-5-yl]piperidin-3-yl]-5-methylthiophene-2-carboxamide] was tested. Which pIC50 did it give?
Answer: Its pIC50 is 8.70.

Question: `Nc1ncnn2c(-c3ccnc(F)c3)cc(N3CCC[C@@H](NC(=O)c4ccc(Cl)s4)C3)c12` [Example 130, N-[(3R)-1-[4-amino-7-(2-fluoropyridin-4-yl)pyrrolo[2,1-f][1,2,4]triazin-5-yl]piperidin-3-yl]-5-chlorothiophene-2-carboxamide] was tested. Which pIC50 did it give?
Answer: Its pIC50 is 7.72.

Question: With `Cc1ccc(C(=O)N[C@@H]2CCCN(c3cc(-c4ccnc(F)c4)n4ncnc(N)c34)C2)s1` [Example 131, N-[(3R)-1-[4-amino-7-(2-fluoropyridin-4-yl)pyrrolo[2,1-f][1,2,4]triazin-5-yl]piperidin-3-yl]-5-methylthiophene-2-carboxamide] as the molecule, how does the pIC50 read?
Answer: Its pIC50 is 8.70.

Question: With `Cc1cc(-c2cc(N3CCC[C@@H](NC(=O)c4ccc(Cl)s4)C3)c3c(N)ncnn23)ccn1` [Example 132, N-[(3R)-1-[4-amino-7-(2-methylpyridin-4-yl)pyrrolo[2,1-f][1,2,4]triazin-5-yl]piperidin-3-yl)-5-chlorothiophene-2-carboxamide] as the molecule, how does the pIC50 read?
Answer: Its pIC50 is 8.40.

Reference: patent US20260250290A1 (BRISTOL-MYERS SQUIBB COMPANY, priority 2023, published 2026)
